Data as given in US7122335B1, “Compounds and methods to enhance rAAV transduction” (priority 1999, dated 2006).
Peptide text beside a SMILES is read from it. * marks the point of attachment. Cbz = O=C(OCc1ccccc1)*

Key:
mouse liver = test: rAAV (AV.Alkphos) gene transfer in mouse liver in vivo, portal vein; parameters: species or system C57B6 mice
Experimental: FIG. 19. […] Recombinant AV.Alkphos (5×10^10 particles) was administered to mouse liver either as virus alone in PBS, virus in combination with 40 μM Z-LLL in PBS, or virus in combination with 200 μM LLnL in PBS. Virus was directly instilled into portal vein of the C57B6 mice. AAV-mediated alkaline phosphatase transgene expression was evaluated by histology staining at 2 and 4 weeks post-infection in frozen tissue sections. The average percentage of the alkphos positive cells in all 6 liver lobes of each individual animal was quantified by NIH image analysis software. The data represents the mean (+/−SEM) of 3 independent mice for each time point in each group.
Recombinant AV.Alkphos (5×10^10 particles) was also administered to mouse liver either as virus alone in PBS, virus in combination with 40 μM Z-LLL in PBS, or virus in combination with 20 μM LLnL in PBS. Virus was directly instilled into portal vein of the C57B6 mice. AAV-mediated alkaline phosphatase transgene expression was evaluated by histology staining at 2 and 4 weeks post infection in frozen tissue sections ([…]).

Solubility in ethanol = format: physicochemical

| Compound | AAV-mediated gene transfer in mouse liver, in words (mouse liver; 40 μM Z-LLL co-administered, 2 and 4 weeks) | increase in rAAV transduction in the liver (mouse liver; 1 month post-infection) [fold] | solubility in ethanol (Solubility in ethanol) |
| --- | --- | --- | --- |
| CC(C)C[C@@H](C=O)NC(=O)[C@H](CC(C)C)NC(=O)[C@H](CC(C)C)NC(=O)OCc1ccccc1 [Z-LLL, N-carbobenzoxyl-L-leucinyl-L-leucinyl-L-leucinal] (Cbz-Leu-Leu-Leu-aldehyde) | enhances AAV-mediated gene transfer | 7 | – |
| N-acetyl-L-leucinyl-L-leucinal-L-norleucinal [LLnL] | – | – | poor solubility |
